Data on 21 molecules can be found in ChEMBL document CHEMBL5096211, “Fluorophenylalkyl-substituted cyanoguanidine derivatives as bacteria-selective MATE transporter inhibitors for the treatment of antibiotic-resistant infections” (Bioorg Med Chem, 2022).

≈ marks a conversion by molar mass, not a printed value. Where only a bound is given, the exact number is not on record here.

The target of series [1] is T1, Multidrug resistance protein HmrM (Haemophilus influenzae) (UniProt P45272).
T1 sequence (whole entry): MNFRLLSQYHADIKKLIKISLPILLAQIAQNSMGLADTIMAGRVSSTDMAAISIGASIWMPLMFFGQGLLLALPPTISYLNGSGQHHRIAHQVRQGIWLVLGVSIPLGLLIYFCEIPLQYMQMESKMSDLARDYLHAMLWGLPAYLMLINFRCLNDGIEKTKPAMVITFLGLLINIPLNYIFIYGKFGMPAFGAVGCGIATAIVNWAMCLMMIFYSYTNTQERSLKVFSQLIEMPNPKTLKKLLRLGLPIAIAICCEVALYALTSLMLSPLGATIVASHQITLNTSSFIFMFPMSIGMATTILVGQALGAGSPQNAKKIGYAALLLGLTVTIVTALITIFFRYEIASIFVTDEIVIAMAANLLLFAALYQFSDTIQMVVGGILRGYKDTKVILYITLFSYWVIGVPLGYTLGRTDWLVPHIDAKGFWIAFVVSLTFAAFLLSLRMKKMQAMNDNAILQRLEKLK
Description: Inhibition of Haemophilus influenza HmrM transporter expressed in Escherichia coli KAM32 assessed as inhibition of bacterial resistance to norfloxacin by measuring norfloxacin MIC at 100 uM incubated for 18 hrs by microbroth dilution method. A general note: Broth dilution looks for growth in wells or tubes with falling amounts of substance.

Series [2] concerns the target T2, Multidrug and toxin extrusion protein 1 (Homo sapiens, UniProt Q96FL8).
T2 sequence (Q96FL8 whole entry): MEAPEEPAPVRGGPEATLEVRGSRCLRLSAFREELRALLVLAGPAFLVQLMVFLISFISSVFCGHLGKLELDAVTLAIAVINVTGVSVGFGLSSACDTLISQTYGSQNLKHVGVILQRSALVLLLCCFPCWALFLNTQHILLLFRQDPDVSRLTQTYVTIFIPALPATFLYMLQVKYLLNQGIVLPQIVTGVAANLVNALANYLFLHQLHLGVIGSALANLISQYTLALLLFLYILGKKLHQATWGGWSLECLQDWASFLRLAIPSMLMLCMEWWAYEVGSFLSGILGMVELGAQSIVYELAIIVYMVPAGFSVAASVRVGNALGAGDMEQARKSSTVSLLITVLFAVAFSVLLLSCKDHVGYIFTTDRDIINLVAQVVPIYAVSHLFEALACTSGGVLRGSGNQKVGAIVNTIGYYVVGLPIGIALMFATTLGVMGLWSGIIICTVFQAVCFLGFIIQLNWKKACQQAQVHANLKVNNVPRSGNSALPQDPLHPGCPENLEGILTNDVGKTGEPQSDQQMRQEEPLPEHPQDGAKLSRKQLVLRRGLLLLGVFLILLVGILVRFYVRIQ
Description: Inhibition of human MATE1. In kind it is toxicity.

For series [3], the target named is T1, Multidrug resistance protein HmrM (Haemophilus influenzae). The series is described as follows: Inhibition of Haemophilus influenza HmrM transporter expressed in Escherichia coli KAM32 assessed as inhibition of bacterial resistance to norfloxacin by measuring reduction in bacterial growth at 100 uM incubated for 18 hrs by microbroth dilution method.
Series [4] relates to HEK293. The series is described as follows: Cytotoxicity against human HEK293 cells assessed as reduction in cell viability upto 300 uM incubated for 24 hrs by MTT assay. Particulars: hek293, 24 h. Type of series: toxicity, cell-based. For orientation: Formazan colour is commonly taken as a measure of viable cells.
In series [5] the target is T3, Multidrug resistance protein MdtK (Escherichia coli (strain K12)) (UniProt P37340).
T3 sequence (whole entry): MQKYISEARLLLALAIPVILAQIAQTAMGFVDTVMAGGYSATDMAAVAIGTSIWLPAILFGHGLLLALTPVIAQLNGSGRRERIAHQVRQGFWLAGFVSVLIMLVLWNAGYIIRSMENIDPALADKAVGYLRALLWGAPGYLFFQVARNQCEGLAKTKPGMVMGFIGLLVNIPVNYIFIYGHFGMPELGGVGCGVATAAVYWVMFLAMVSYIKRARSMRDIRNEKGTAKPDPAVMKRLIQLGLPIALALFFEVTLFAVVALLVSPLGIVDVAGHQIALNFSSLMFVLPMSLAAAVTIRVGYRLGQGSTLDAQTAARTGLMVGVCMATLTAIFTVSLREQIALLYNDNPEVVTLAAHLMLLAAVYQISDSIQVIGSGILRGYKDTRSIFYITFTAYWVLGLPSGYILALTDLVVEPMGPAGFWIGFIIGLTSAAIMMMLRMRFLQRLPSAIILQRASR
Description: Inhibition of Escherichia coli MdtK expressed in Escherichia coli KAM32 assessed as inhibition of bacterial growth incubated for 18 hrs by microbroth dilution method.

For series [6], the system named is Bacteroides thetaiotaomicron. The series is described as follows: Inhibition of Bacteroides thetaiotaomicron BexA expressed in Escherichia coli KAM32 assessed as inhibition of bacterial growth incubated for 18 hrs by microbroth dilution method.

The IC50 is the midpoint of a concentration-inhibition curve. Higher therefore signals a need for much substance. As for `CN/C(=N\C#N)NCCSCc1ccccc1`, the MIC in series [1] stood at 0.056 µg/mL (≈ 0.225 µM). The concentration for half-maximal inhibition (IC50) in series [2] is > 100 µM. In addition, the Efficacy in series [3] came out at 17%.
Consider `CN/C(=N\C#N)NCCc1cccc(F)c1`, for which, in series [1], the MIC turned out to be 0.056 µg/mL (≈ 0.254 µM). Moreover, the Efficacy in series [3] stood at 17%.
For the molecule `N=C(N)NCCSCc1cccc(F)c1`, the MIC in series [1] came to 0.048 µg/mL (≈ 0.211 µM). For the same molecule, the Efficacy in series [3] was 33%.
Turning to `CN/C(=N\C#N)NCCSCc1cccc([N+](=O)[O-])c1`, the MIC in series [1] was determined as 0.032 µg/mL (≈ 0.109 µM). Also, in series [3], the Efficacy amounted to 67%.
As for `CN/C(=N\C#N)NCCCCCc1cccc(F)c1`, the MIC in series [1] is 0.02 µg/mL (≈ 0.0762 µM). The Activity entry in series [4] was “Non-Toxic”. In series [2], the IC50 was > 100 µM. Besides, the Efficacy in series [3] amounted to 92%; in series [5], 86%; in series [6] it was 0%.
With `CN/C(=N\C#N)NCCSCc1ccccc1F`, the MIC in series [1] is 0.04 µg/mL (≈ 0.15 µM). The Efficacy in series [3] worked out at 50%.
On the same counts, the results for `CN/C(=N\C#N)NCCSCc1ccc(F)cc1` are 0.048 µg/mL (≈ 0.18 µM) and 33%.
On the same counts, the results for `CN/C(=N\CCSCc1nc[nH]c1C)NC#N` are 0.056 µg/mL (≈ 0.222 µM) and 17%.
On to `CN/C(=N\C#N)NCCCc1cccc(F)c1`, for which, in series [1], the MIC is 0.04 µg/mL (≈ 0.171 µM). Besides, the Efficacy in series [3] amounted to 50%.
On to `CN/C(=N\C#N)NCCCCc1cccc(F)c1`, for which, in series [1], the MIC was 0.024 µg/mL (≈ 0.0967 µM). In addition, the Efficacy in series [3] was found to be 83%; in series [5] it was 57%; in series [6], 0%.
With `CN/C(=N\C#N)NCCSCc1cccc(C(F)(F)F)c1`, in series [1], the MIC was determined as 0.048 µg/mL (≈ 0.152 µM). The Efficacy in series [3] came to 33%.
For the molecule `Fc1cccc(CSCCNc2ncccn2)c1`, the MIC in series [1] came out at 0.056 µg/mL (≈ 0.213 µM). In addition, the Efficacy in series [3] was determined as 17%.
`CS/C(=N\C#N)NCCSCc1cccc(F)c1`: the MIC in series [1] is 0.032 µg/mL (≈ 0.113 µM). The Efficacy in series [3] turned out to be 67%.
Turning to `CN/C(=N\C#N)NCCSCc1ccc(F)c(F)c1`, the MIC in series [1] worked out at 0.048 µg/mL (≈ 0.169 µM). Besides, in series [3], the Efficacy was 33%.
Turning to `CN/C(=N\C#N)NCCSCc1cccc(F)c1`, the MIC in series [1] turned out to be 0.032 µg/mL (≈ 0.12 µM). In series [2], the 50% inhibitory concentration (IC50) is > 100 µM. Also, in series [3], the Efficacy turned out to be 67%.
Consider `CN/C(=N\C#N)NCCSCc1cc(F)cc(F)c1`, for which the MIC in series [1] was 0.04 µg/mL (≈ 0.141 µM). Besides, the Efficacy in series [3] is 50%.
`CN/C(=N\C#N)NCCSCc1cccc(OC)c1`: the MIC in series [1] worked out at 0.04 µg/mL (≈ 0.144 µM). In addition, the Efficacy in series [3] was found to be 50%.
In series [2], `Cc1[nH]cnc1CSCCNc1ncccn1` registered an IC50 of 2 µM.
Consider `CN/C(=N\C#N)NCCSCCc1cccc(F)c1`, for which the MIC in series [1] turned out to be 0.028 µg/mL (≈ 0.0999 µM). Further, the Efficacy is 75% in series [3], 57% in series [5] and 0% in series [6].
Take `CN/C(=N\C#N)NCCOCc1cccc(F)c1`: the MIC in series [1] came out at 0.056 µg/mL (≈ 0.224 µM). In addition, in series [3], the Efficacy is 17%.
For `NCCSCc1cccc(F)c1`, in that order: 0.04 µg/mL (≈ 0.216 µM) and 50%.
